Measurements reported in ChEMBL document CHEMBL5046243, “Odookeanynes A and B, Acetylene-Containing Lipopeptides from an Okeania sp. Marine Cyanobacterium” (J Nat Prod, 2022).
Square brackets hold non-standard residues; d marks the D form. Peptide text beside a SMILES is read from it. * marks the point of attachment. Pyrrolidine(2S-propanoyl) = CCC(=O)[C@@H]1CCCN1*; X2 = C#CCCCC[C@H](C)C[C@@H](C)C(=O)*; NMeI = CC[C@H](C)[C@H](NC)C(=O)O; X1 = C#CCCCCCC[C@@H](C)C(=O)*; NMeV = CN[C@H](C(=O)O)C(C)C

Assays:
3T3-L1 = assay: Cytotoxicity against mouse 3T3-L1 cells assessed as reduction in cell viability at 30 uM in presence of insulin measured after 3 days by MTT assay; type: toxicity, cell-based; conditions: 3t3-l1, 72 h, time 3 day
[1] = Effect on preadipocyte differentiation in mouse 3T3-L1 cells assessed as lipid droplet accumulation at 10 uM in presence of insulin measured after 9 days by Oil Red O staining based assay; type: functional; conditions: time 9 day

SMILES | Activity (3T3-L1) | fold change (FC) [1]
C#CCCCCCC[C@@H](C)C(=O)N(C)[C@H](C(=O)N(C)[C@H](C(=O)N1CCC[C@H]1C(=O)N(C)[C@H](C(=O)N1CCC[C@H]1C(=O)CC)C(C)C)[C@@H](C)CC)C(C)C (X1-[NMeV][NMeI]P[NMeV]-{Pyrrolidine(2S-propanoyl)}) | Non-Toxic | 1.9
C#CCCCC[C@H](C)C[C@@H](C)C(=O)N(C)[C@H](C(=O)N(C)[C@H](C(=O)N1CCC[C@H]1C(=O)N(C)[C@H](C(=O)N1CCC[C@H]1C(=O)CC)C(C)C)[C@@H](C)CC)C(C)C (X2-[NMeV][NMeI]P[NMeV]-{Pyrrolidine(2S-propanoyl)}) | Non-Toxic | 2.1
